From patent US9358224B2, “Pharmaceutical formulation comprising a phosphodiesterase inhibitor” (CHIESI FARMACEUTICI S.p.A., priority 2011, dated 2016)

Experiment: Chemical stability study of the pMDI formulation at 25° C./60% RH
Type: physicochemical
Conditions: 1 and 3 months at 25° C./60% RH
Description: Physical and chemical stability of the formulation reported in table 1 has been assessed in a stability study at 1 and 3 months at 25° C./60% relative humidity (RH).
Chemical stability and performances data of the formulation are reported in Table 2, wherein “mean delivered dose intra-can” means the mean delivered dose of ten actuations on the same can (3 actuations at the beginning, 4 actuations in the middle and 3 actuations at the end of the life of the can).

## CS(=O)(=O)Nc1ccc(C(=O)OC(Cc2c(Cl)c[n+]([O-])cc2Cl)c2ccc(OC(F)F)c(OCC3CC3)c2)cc1OCC1CC1 (single isomer, unassigned; (-)) [Compound C2, (−)-3-Cyclopropylmethoxy-4-methanesulfonylamino-benzoic acid 1-(3-cyclopropylmethoxy-4-difluoromethoxy-phenyl)-2-(3,5-dichloro-1-oxy-pyridin-4-yl)-ethyl ester]
  chemical stability of C2 in the formulation (in words): no degradation during stability
